In patent US11419806B2, “Prebiotic oral care methods using a saccharide” (Colgate-Palmolive Company, priority 2013, dated 2022):

What was measured:
Assay in all cases: Twenty-four hour biofilm growth (crystal violet)
Format in all cases: cell-based
[1] = system: S. sanguinis
Experimental: (§1) The increase in biofilm formation of the tested bacteria in response to selected saccharides (D-turanose, D-lactitol, myo-inositol, and N-acetyl-D-mannosamine) was investigated by setting up biofilm growth assays in a nutritionally rich medium (brain heart infusion broth (BHI), Oxoid), over 24 hours. Late exponential growth phase liquid cultures were prepared by transferring the respective bacterium from blood agar plates to BHI and overnight incubation at 37° C. in an anaerobic atmosphere for A. viscosus, V. parvula, P. gingivalis, P. intermedia, T. forsythia, A. naeslundii, and C. sputigena, and in a 5% CO2 environment for S. salivarius, S. sanguinis, S. mitis, A. actinomycetemcomitans, S. mutans, and S. gordonii. Overnight cultures were transferred to BHI and adjusted to a concentration of 1×10^7 CFU/ml by measuring the optical density at 600 nm (OD600) (BioRad SmartSpec 3000). For each strain, 200 μl of the bacterial suspension was added to a 96-well plate containing 20 μl of the respective saccharides. Final concentrations of the saccharides were set to 5, 10, 20 and 25 μmol/ml. […] Additionally, for each bacterium tested, a background control, to correct for background staining, was added. This background control contained the bacterium tested and 0.03 weight % chlorhexidine, as an antiseptic. Plates were incubated as previously described. After 24 hrs the supernatant was removed from the wells of the plates. The wells were washed twice with 1×100 μL PBS (phosphate buffered saline), fixed for 20 minutes with 96% vol. ethanol (96% vol. solution in water) and the biofilm retained at the bottom of the wells was stained with 1 weight % crystal violet (1 weight % solution in water). The bound dye was dissolved with 5% vol. acetic acid (5% vol. solution in water). Quantification of the stained biofilm was performed by measuring the absorbance at 630 nm using a Multiskan Ascent microplate reader (Thermo Scientific).
(§2) The experiment was carried out on three different days (thus providing 3 biological replicas) and each day the experiment was carried out in quadruple (thus providing 4 technical replicas) for each combination of bacterium with saccharide and for each control. For each day and for each combination, the average (mean) of the values obtained (as detailed above) for the four technical replicas was calculated to provide a single value for each combination on each day. The values shown in Tables 7a, 7b, 8a, 8b, below, are the average (mean) of the three single values obtained for each combination of bacterium with saccharide.

[2] = system: S. salivarius
Experimental: as §1, §2

[3] = system: A. actinomycetemcomitans
Experimental: as §1, §2

[4] = system: S. gordonii
Experimental: as §1, §2

[5] = system: A. viscosus
Experimental: as §1, §2

[6] = system: S. mitis
Experimental: as §1, §2

[7] = system: T. forsythia
Experimental: as §1, §2

[8] = system: C. sputigena
Experimental: as §1, §2

Structure (SMILES) | biofilm growth: OD 630 nm at 24 hrs divided by OD of control (control = 1) ([1]; 5 μmol/ml) | biofilm growth: OD 630 nm at 24 hrs divided by OD of control (control = 1) ([1]; 10 μmol/ml) | biofilm growth: OD 630 nm at 24 hrs divided by OD of control (control = 1) ([1]; 20 μmol/ml) | biofilm growth: OD 630 nm at 24 hrs divided by OD of control (control = 1) ([1]; 25 μmol/ml) | biofilm growth: OD 630 nm at 24 hrs divided by OD of control (control = 1) ([2]; 5 μmol/ml) | biofilm growth: OD 630 nm at 24 hrs divided by OD of control (control = 1) ([2]; 10 μmol/ml) | biofilm growth: OD 630 nm at 24 hrs divided by OD of control (control = 1) ([2]; 20 μmol/ml) | biofilm growth: OD 630 nm at 24 hrs divided by OD of control (control = 1) ([2]; 25 μmol/ml) | biofilm growth: OD 630 nm at 24 hrs divided by OD of control (control = 1) ([3]; 5 μmol/ml) | biofilm growth: OD 630 nm at 24 hrs divided by OD of control (control = 1) ([3]; 10 μmol/ml) | biofilm growth: OD 630 nm at 24 hrs divided by OD of control (control = 1) ([3]; 20 μmol/ml) | biofilm growth: OD 630 nm at 24 hrs divided by OD of control (control = 1) ([3]; 25 μmol/ml) | biofilm growth: OD 630 nm at 24 hrs divided by OD of control (control = 1) ([4]; 5 μmol/ml) | biofilm growth: OD 630 nm at 24 hrs divided by OD of control (control = 1) ([4]; 10 μmol/ml) | biofilm growth: OD 630 nm at 24 hrs divided by OD of control (control = 1) ([4]; 20 μmol/ml) | biofilm growth: OD 630 nm at 24 hrs divided by OD of control (control = 1) ([4]; 25 μmol/ml) | biofilm growth: OD 630 nm at 24 hrs divided by OD of control (control = 1) ([5]; 5 μmol/ml) | biofilm growth: OD 630 nm at 24 hrs divided by OD of control (control = 1) ([5]; 10 μmol/ml) | biofilm growth: OD 630 nm at 24 hrs divided by OD of control (control = 1) ([5]; 20 μmol/ml) | biofilm growth: OD 630 nm at 24 hrs divided by OD of control (control = 1) ([5]; 25 μmol/ml) | other results
OC[C@H]1O[C@@](O)(CO)[C@@H](O[C@H]2O[C@H](CO)[C@@H](O)[C@H](O)[C@H]2O)[C@@H]1O [D-Turanose, α-D-glucopyranosyl-(1→3)-α-D-fructofuranose] | 2.0761 | 2.7352 | 1.6356 | 1.9363 | 0.9812 | 0.9793 | 0.8441 | 0.8731 | 0.9734 | 0.9794 | 1.0297 | 0.9417 | 1.0874 | 1.1335 | 1.1002 | 1.2536 | 0.1692 | 0.0920 | 0.0289 | 0.0366 | biofilm growth: OD 630 nm at 24 hrs divided by OD of control (control = 1) ([6]; 5 μmol/ml): 1.9433; biofilm growth: OD 630 nm at 24 hrs divided by OD of control (control = 1) ([6]; 10 μmol/ml): 1.5717; biofilm growth: OD 630 nm at 24 hrs divided by OD of control (control = 1) ([6]; 20 μmol/ml): 0.5236; biofilm growth: OD 630 nm at 24 hrs divided by OD of control (control = 1) ([6]; 25 μmol/ml): 0.3988; biofilm growth: OD 630 nm at 24 hrs divided by OD of control (control = 1) ([7]; 5 μmol/ml): 0.8918; biofilm growth: OD 630 nm at 24 hrs divided by OD of control (control = 1) ([7]; 10 μmol/ml): 0.9297; biofilm growth: OD 630 nm at 24 hrs divided by OD of control (control = 1) ([7]; 20 μmol/ml): 0.7855; biofilm growth: OD 630 nm at 24 hrs divided by OD of control (control = 1) ([7]; 25 μmol/ml): 0.8404; biofilm growth: OD 630 nm at 24 hrs divided by OD of control (control = 1) ([8]; 5 μmol/ml): 0.9429; biofilm growth: OD 630 nm at 24 hrs divided by OD of control (control = 1) ([8]; 10 μmol/ml): 0.9387; biofilm growth: OD 630 nm at 24 hrs divided by OD of control (control = 1) ([8]; 20 μmol/ml): 0.9130; biofilm growth: OD 630 nm at 24 hrs divided by OD of control (control = 1) ([8]; 25 μmol/ml): 0.9464
O[C@H]1[C@H](O)[C@@H](O)[C@H](O)[C@@H](O)[C@H]1O [Myo-Inositol, (1R,2R,3S,4S,5R,6S)-cyclohexane-1,2,3,4,5,6-hexol] | 2.4209 | 2.3658 | 2.1878 | 2.1240 | 0.8358 | 0.9694 | 0.8119 | 0.8202 | 0.8323 | 0.8378 | 0.9661 | 0.9898 | 0.6178 | 0.6384 | 0.6650 | 0.6716 | 0.8136 | 0.8735 | 0.8117 | 0.8167 | biofilm growth: OD 630 nm at 24 hrs divided by OD of control (control = 1) ([6]; 5 μmol/ml): 1.2433; biofilm growth: OD 630 nm at 24 hrs divided by OD of control (control = 1) ([6]; 10 μmol/ml): 1.0616; biofilm growth: OD 630 nm at 24 hrs divided by OD of control (control = 1) ([6]; 20 μmol/ml): 1.1754; biofilm growth: OD 630 nm at 24 hrs divided by OD of control (control = 1) ([6]; 25 μmol/ml): 1.1357; biofilm growth: OD 630 nm at 24 hrs divided by OD of control (control = 1) ([7]; 5 μmol/ml): 0.6841; biofilm growth: OD 630 nm at 24 hrs divided by OD of control (control = 1) ([7]; 10 μmol/ml): 0.6396; biofilm growth: OD 630 nm at 24 hrs divided by OD of control (control = 1) ([7]; 20 μmol/ml): 0.7688; biofilm growth: OD 630 nm at 24 hrs divided by OD of control (control = 1) ([7]; 25 μmol/ml): 0.6940; biofilm growth: OD 630 nm at 24 hrs divided by OD of control (control = 1) ([8]; 5 μmol/ml): 0.9276; biofilm growth: OD 630 nm at 24 hrs divided by OD of control (control = 1) ([8]; 10 μmol/ml): 0.9522; biofilm growth: OD 630 nm at 24 hrs divided by OD of control (control = 1) ([8]; 20 μmol/ml): 0.9758; biofilm growth: OD 630 nm at 24 hrs divided by OD of control (control = 1) ([8]; 25 μmol/ml): 0.8233
CC(=O)N[C@H](C=O)[C@@H](O)[C@H](O)[C@H](O)CO [N-acetyl-D-mannosamine, 2-acetamido-2-deoxy-D-mannose] | 1.5651 | 2.4890 | 0.5600 | 1.0289 | 0.6489 | 0.6824 | 0.3314 | 0.3520 | 0.9519 | 1.0569 | 0.6532 | 0.7158 | 0.7178 | 1.0041 | 0.5487 | 0.6746 | 0.8126 | 0.9165 | 0.5093 | 0.6492 | biofilm growth: OD 630 nm at 24 hrs divided by OD of control (control = 1) ([6]; 5 μmol/ml): 2.4328; biofilm growth: OD 630 nm at 24 hrs divided by OD of control (control = 1) ([6]; 10 μmol/ml): 4.2456; biofilm growth: OD 630 nm at 24 hrs divided by OD of control (control = 1) ([6]; 20 μmol/ml): 2.1524; biofilm growth: OD 630 nm at 24 hrs divided by OD of control (control = 1) ([6]; 25 μmol/ml): 3.0078; biofilm growth: OD 630 nm at 24 hrs divided by OD of control (control = 1) ([7]; 5 μmol/ml): 0.6028; biofilm growth: OD 630 nm at 24 hrs divided by OD of control (control = 1) ([7]; 10 μmol/ml): 0.9745; biofilm growth: OD 630 nm at 24 hrs divided by OD of control (control = 1) ([7]; 20 μmol/ml): 0.4562; biofilm growth: OD 630 nm at 24 hrs divided by OD of control (control = 1) ([7]; 25 μmol/ml): 0.5433; biofilm growth: OD 630 nm at 24 hrs divided by OD of control (control = 1) ([8]; 5 μmol/ml): 0.9108; biofilm growth: OD 630 nm at 24 hrs divided by OD of control (control = 1) ([8]; 10 μmol/ml): 0.9323; biofilm growth: OD 630 nm at 24 hrs divided by OD of control (control = 1) ([8]; 20 μmol/ml): 0.8871; biofilm growth: OD 630 nm at 24 hrs divided by OD of control (control = 1) ([8]; 25 μmol/ml): 0.8822
